These are literature values, as cited in patent US20150291659A1, “SOLOMONAMIDE ANALOGUE COMPOUNDS, PHARMACEUTICALS CONTAINING SOLOMONAMIDE ANALOGUE COMPOUNDS, AND PROCESSES FOR THE PREPARATION THEREOF” (COUNCIL OF SCIENTIFIC AND INDUSTRIAL RESEARCH, priority 2012, published 2015).

This data set deals with carrageenan induced paw edema. To be noted: carrageenan induced paw edema model, animal-models, 100 μg/kg. For orientation: In the carrageenan paw model, swelling and tenderness develop within hours.

Regarding `C[C@@H]1C(=O)NCC(=O)N[C@H](C)C(=O)Nc2cc(O)ccc2C(=O)[C@H](O)[C@@H](NC(=O)[C@@H](N)CO)[C@@H]1O` [Solomonamide A], the reduction of inflammation is given as approximately 60%.
